Results from BigSolDB 2.1.

CC[C@H](C)C(=O)O[C@H]1C[C@H](O)C=C2C=C[C@H](C)[C@H](CC[C@@H](O)C[C@@H](O)CC(=O)[O-])[C@H]21.[Na+]
Settings | solubility (mole fraction)
in ethanol, 278 K | 0.0031
in ethanol, 283 K | 0.00325
in ethanol, 288 K | 0.00346
in ethanol, 293 K | 0.00366
in ethanol, 298 K | 0.00406
in ethanol, 303 K | 0.00429
in ethanol, 318 K | 0.00569
in ethanol, 323 K | 0.00692
in ethanol, 328 K | 0.00793
in ethanol, 333 K | 0.00942
in isopropanol, 278 K | 0.000605
in isopropanol, 283 K | 0.000684
in isopropanol, 288 K | 0.000753
in isopropanol, 293 K | 0.000818
in isopropanol, 298 K | 0.000903
in isopropanol, 303 K | 0.00103
in isopropanol, 308 K | 0.0011
in isopropanol, 318 K | 0.00141
in isopropanol, 322.9 K | 0.00164
in isopropanol, 327.9 K | 0.0019
in methanol, 277.8 K | 0.0225
in methanol, 283 K | 0.0245
in methanol, 287.9 K | 0.027
in methanol, 293 K | 0.0301
in methanol, 297.8 K | 0.0326
in methanol, 302.9 K | 0.0373
in methanol, 308 K | 0.0418
in methanol, 313 K | 0.0492
in methanol, 318 K | 0.0588
in methanol, 324 K | 0.0687
in n-butanol, 278.1 K | 0.00108
in n-butanol, 283 K | 0.00118
in n-butanol, 288 K | 0.00127
in n-butanol, 293 K | 0.00144
in n-butanol, 298 K | 0.00159
in n-butanol, 303 K | 0.00178
in n-butanol, 308 K | 0.00223
in n-butanol, 313 K | 0.0029
in n-butanol, 318.2 K | 0.00345
in n-butanol, 323 K | 0.00408
in n-butanol, 328 K | 0.00493
in n-propanol, 278 K | 0.00208
in n-propanol, 283 K | 0.00216
in n-propanol, 288 K | 0.00219
in n-propanol, 293 K | 0.00227
in n-propanol, 298 K | 0.00238
in n-propanol, 308 K | 0.00343
in n-propanol, 313 K | 0.00449
in n-propanol, 318 K | 0.0062
in n-propanol, 328 K | 0.0122
in n-propanol, 333 K | 0.0158
in water, 278.4 K | 0.00911
in water, 283 K | 0.0119
in water, 288 K | 0.0162
in water, 293 K | 0.0216
in water, 298 K | 0.0285
in water, 303 K | 0.0343
in water, 313 K | 0.0477
in water, 318 K | 0.0553
in water, 323 K | 0.0642
in water, 328 K | 0.0723
in water, 333 K | 0.0841
